For assay [1], the system named is SW620 human colon cancer cells. The assay can be described thus: SW620 Cell Viability Assay. The format is cell-based. Conditions: Homo sapiens, SW-620, 96 h, CellTiter-Glo; 4 days incubation; read-out: Cellular EC50 (μM) SW620. In short, it runs like this: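 SW620 human colon cancer cells, some attached 24 h then serum-starved 48 h before dosing; compounds prepared in serum-supplemented medium. Cells incubated with compound 4 days at 37 °C, 5% CO2, and viability measured by CellTiter-Glo luminescence.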

In the next assay the target is T1, Human DYRK1A (Homo sapiens, UniProt Q13627).
T1 construct: purchased Invitrogen PV3997
In words: DYRK1A Kinase TR-FRET (IMAP-Tb) Assay. The format is biochemical. To be noted: TR-FRET (IMAP-Tb); ATP 70 μM; 37° C. 60 minutes; read-out: Enzyme IC50 (μM) DYRK1A. The procedure, abridged: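 Recombinant human DYRK1A phosphorylated fluorescent substrate peptide (1.0 μM) with ATP in 10 mM HEPES pH 7.0, 50 mM NaCl, 5 mM MgCl2, 1 mM DTT, 1 mM NaVO4, 0.02% BSA for 60 min at 37 °C. Phosphopeptide detected by IMAP terbium TR-FRET; IC50 reported.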
(In general: In TR-FRET formats the signal depends on donor and acceptor labels being close together.)

The target of another assay is T2, Human DYRK1B (Homo sapiens, UniProt Q9Y463).
T2 construct: purchased Invitrogen PR8350B (former PV4649)
In words: DYRK1B Kinase TR-FRET (IMAP-Tb) Assay. The assay is classed as biochemical. Conditions: TR-FRET (IMAP-Tb); ATP 70 μM; 37° C. 60 minutes; read-out: Enzyme IC50 (μM) DYRK1B.

Where only a bound is given, the exact number is not on record here.

Results on three compounds are retold here after patent US20120184542A1, “PYRIDO PYRIMIDINES” (priority 2011, published 2012).

T2 sequence (Q9Y463 whole entry): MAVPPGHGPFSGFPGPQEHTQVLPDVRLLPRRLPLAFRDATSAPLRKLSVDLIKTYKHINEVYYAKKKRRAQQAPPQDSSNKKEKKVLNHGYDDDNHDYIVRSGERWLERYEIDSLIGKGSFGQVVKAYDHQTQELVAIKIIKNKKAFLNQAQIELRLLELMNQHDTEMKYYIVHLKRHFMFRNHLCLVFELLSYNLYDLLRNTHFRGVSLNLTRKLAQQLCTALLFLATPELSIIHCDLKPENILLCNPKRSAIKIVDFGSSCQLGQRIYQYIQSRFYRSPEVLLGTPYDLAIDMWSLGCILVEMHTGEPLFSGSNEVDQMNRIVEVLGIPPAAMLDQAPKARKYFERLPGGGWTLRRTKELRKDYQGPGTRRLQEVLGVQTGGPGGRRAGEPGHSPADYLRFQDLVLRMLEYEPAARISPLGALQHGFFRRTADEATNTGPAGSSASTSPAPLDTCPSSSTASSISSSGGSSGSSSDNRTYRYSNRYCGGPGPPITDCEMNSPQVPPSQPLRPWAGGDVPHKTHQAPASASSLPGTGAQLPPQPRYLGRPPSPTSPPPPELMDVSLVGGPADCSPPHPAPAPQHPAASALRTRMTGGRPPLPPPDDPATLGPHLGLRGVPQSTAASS

The term EC50 denotes the midpoint of the concentration-response curve. One may read the IC50 as the midpoint of a concentration-inhibition curve. Take `CN1CCN(CCOc2ncc3cc(C(=O)Nc4cc(C(=O)NCc5cccc(Cl)c5)ccc4Cl)c(=O)[nH]c3n2)CC1` [Example 87, 2-[2-(4-Methyl-piperazin-1-yl)-ethoxy]-7-oxo-7,8-dihydro-pyrido[2,3-d]pyrimidine-6-carboxylic acid [2-chloro-5-(3-chloro-benzylcarbamoyl)-phenyl]amide]: the EC50 in assay [1] was 0.186 µM. Moreover, the IC50 at Human DYRK1A worked out at 0.061 µM; at Human DYRK1B it was 0.0859 µM.
Turning to `COC(=O)c1ccc(Cl)c(NC(=O)c2cc3cnc(NCC(O)CO)nc3[nH]c2=O)c1` (stereo not drawn) [Example 38, 4-Chloro-3-{[2-(2,3-dihydroxy-propylamino)-7-oxo-7,8-dihydro-pyrido[2,3-d]pyrimidine-6-carbonyl]amino}-benzoic acid methyl ester], the EC50 in assay [1] was greater than 100 µM. Besides, the IC50 was 0.0385 µM at Human DYRK1A and 0.08 µM on Human DYRK1B.
As to `NC1CCN(c2ncc3cc(C(=O)Nc4cc(C(=O)NCc5cccc(Cl)c5)ccc4Cl)c(=O)[nH]c3n2)CC1` [Example 97, 2-(4-Amino-piperidin-1-yl)-7-oxo-7,8-dihydro-pyrido[2,3-d]pyrimidine-6-carboxylic acid [2-chloro-5-(3-chloro-benzylcarbamoyl)-phenyl]-amide], the EC50 in assay [1] worked out at 0.0662 µM. The IC50 on Human DYRK1A worked out at 0.0448 µM; on Human DYRK1B it was 0.0819 µM.
